{"source": "patent US7307082B2", "about": "“Heterocyclic derivatives as CRF antagonists” (Roche Palo Alto LLC, priority 2003, dated 2007)", "key": {"[1]": {"target": "T1, CRF receptor (Homo sapiens, UniProt P34998)", "T1 construct": "Cell membranes are prepared according the method of Dieterich and DeSouza (1996); endogenous in cells; host or cells: IMR-32 human neuroblastoma cells (membrane preparation)", "T1 sequence (P34998 24-415)": "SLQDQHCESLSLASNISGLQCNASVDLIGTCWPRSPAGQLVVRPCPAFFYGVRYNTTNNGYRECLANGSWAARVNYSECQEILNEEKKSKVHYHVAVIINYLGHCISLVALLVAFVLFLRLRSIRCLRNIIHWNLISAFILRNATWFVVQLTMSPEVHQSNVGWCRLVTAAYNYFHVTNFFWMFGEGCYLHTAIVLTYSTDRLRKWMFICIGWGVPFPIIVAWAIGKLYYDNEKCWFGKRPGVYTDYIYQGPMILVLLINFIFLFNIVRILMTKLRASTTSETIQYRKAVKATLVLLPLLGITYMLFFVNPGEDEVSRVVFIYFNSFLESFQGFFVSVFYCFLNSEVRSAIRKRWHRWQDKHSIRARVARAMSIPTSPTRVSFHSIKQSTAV", "assay": "CRF Receptor Binding Assay (competition with [125I]Tyr0-ovine CRF, IMR-32 cell membranes)", "settings": "Human IMR-32 neuroblastoma cell membranes", "procedure": "CRF Receptor Binding Assay\nHuman IMR-32 neuroblastoma cells are grown to 80% confluence in MEM medium containing 10% heat-inactivated FBS, 1 mM sodium pyruvate, and 0.1 mM nonessential amino acids. Cell membranes are prepared according the method of Dieterich and DeSouza (1996). The cells (˜5E+9) are resuspended in 10 volumes of wash buffer (5 mM Tris HCl, 10 mM MgCl2, 2 mM EGTA, pH 7.4 at RT), homogenized with a Polytron, and then centrifuged at 45,000 G for 20 min at 4° C. The membrane pellets are washed twice with wash buffer (45,000 G for 20 min at 4° C.) and then resuspended (50 mM Tris HCl, 10 mM MgCl2, 2 mM EGTA, pH 7.4 at RT). Protein concentration is determined using Pierce reagents and BSA as standard. Aliquots of 1-1.5 mL are stored at −80° C. until binding assay.\nThe competition binding assay is performed in a final volume of 250 μl, which contains assay buffer (50 mM Tris-HCl, 10 mM MgCl2, 2 mM EGTA, 0.2% BSA, 0.1 mM bacitracin and 100 kIU/mL aprotinin pH 7.2 at R.T.), 0.05 nM [^125I]Tyr^0-ovine CRF (Du Pont New England Nuclear), 50 μg of membrane protein, and test compound at various concentrations. Non-specific binding is determined with 1 uM hCRF. […] Unbound radioactivity is removed by four rapid washes (0.8 ml/well) with wash buffer. The radioactivity is quantified using a Packard TopCount. […]"}}}
{"molecule": "CCC(CC)N1CCc2c(C)nc(N(CC)c3c(C)cc(C)cc3C)nc21", "note": "[Cpd 2, Ethyl-[7-(1-ethyl-propyl)-4-meth-yl-6,7-dihydro-5H-pyr-rolo[2,3-d]pyrimidin-2-yl]-(2,4,6-tri-methyl-phenyl)-amine;compound with trifluoro-aceticacid]", "values": [{"measurement": "IC50", "setting": "[1]; 0.05 nM [125I]Tyr0-ovine CRF, 2 hr at 25° C.", "result": 2090, "unit": "nM"}, {"measurement": "Ki", "setting": "[1]; pKi values are derived from pIC50 values", "result": 195, "unit": "nM"}]}
{"molecule": "CCCC(CCC)N1C(=O)CCc2c(C)nc(N(CC)c3ccc(C(C)C)cc3Br)nc21", "note": "[Cpd 117, 2-[(2-Bromo-4-isopropyl-phenyl)-eth-yl-amino]-4-methyl-8-(1-propyl-bu-tyl)-5,8-dihydro-6H-pyrido[2,3-d]py-rimidin-7-one]", "values": [{"measurement": "melting point", "result": "92 to 94", "unit": "°C"}]}
{"molecule": "CCC(CC)N1C(=O)CCc2c(C)nc(Nc3ccc(C(C)C)cc3Br)nc21", "note": "[Cpd 113, 2-(2-Bromo-4-isopropyl-phenyl-amino)-8-(1-ethyl-propyl)-4-meth-yl-5,8-dihydro-6H-pyrido[2,3-d]py-rimidin-7-one]", "values": [{"measurement": "melting point", "result": "124 to 126", "unit": "°C"}]}
{"molecule": "CCCC(CCC)N1CCCc2c(C)nc(N(CC)c3ccc(C(C)C)cc3Br)nc21.Cl", "values": [{"measurement": "melting point", "result": "201 to 205", "unit": "°C"}]}
{"molecule": "CCCC(CCC)N1CCCc2c(C)nc(Nc3ccc(C(C)C)cc3Br)nc21.Cl", "values": [{"measurement": "melting point", "result": "182 to 184", "unit": "°C"}]}
